Assay results reported in article PMC12069442 (Frontiers in Pharmacology, 2025).

Legend:
CYP3A4.1 = CYP3A4.1 (Homo sapiens, UniProt P08684); test: Ziprasidone catalysis by recombinant CYP3A4.1
Procedure: (§1) Following the incubation, 400 μL of ACN and 20 μL of IS were added to the mixture. The sample was then vortexed and centrifuged, and the resulting supernatant was collected for analysis via LC-MS/MS.

CYP3A4.3 = CYP3A4.3 (Homo sapiens, UniProt P08684, M445T); test: Ziprasidone catalysis by recombinant CYP3A4.3
Sequence of CYP3A4.3 (P08684 whole entry M445T): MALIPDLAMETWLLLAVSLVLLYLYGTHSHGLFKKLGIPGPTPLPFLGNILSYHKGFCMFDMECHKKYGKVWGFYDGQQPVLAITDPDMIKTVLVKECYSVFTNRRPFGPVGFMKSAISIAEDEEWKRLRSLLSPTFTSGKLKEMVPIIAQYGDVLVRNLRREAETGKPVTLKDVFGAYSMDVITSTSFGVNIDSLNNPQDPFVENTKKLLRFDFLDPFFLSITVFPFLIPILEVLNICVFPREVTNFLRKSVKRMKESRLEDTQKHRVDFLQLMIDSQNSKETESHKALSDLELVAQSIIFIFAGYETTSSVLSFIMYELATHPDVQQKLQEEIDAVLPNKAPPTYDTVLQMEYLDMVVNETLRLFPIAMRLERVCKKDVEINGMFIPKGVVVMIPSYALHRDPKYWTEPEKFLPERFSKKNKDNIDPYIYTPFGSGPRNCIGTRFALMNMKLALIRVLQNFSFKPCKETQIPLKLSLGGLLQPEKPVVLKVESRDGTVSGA
Procedure: as §1

CYP3A4.5 = CYP3A4.5 (Homo sapiens, UniProt P08684, P218R); test: Ziprasidone catalysis by recombinant CYP3A4.5
Sequence of CYP3A4.5 (P08684 whole entry P218R): as the sequence (P08684 whole entry M445T) above, with P218R, T445M counted along it
Procedure: as §1

CYP3A4.8 = CYP3A4.8 (Homo sapiens, UniProt P08684, R130Q); test: Ziprasidone catalysis by recombinant CYP3A4.8
Sequence of CYP3A4.8 (P08684 whole entry R130Q): as the sequence (P08684 whole entry M445T) above, with R130Q, T445M counted along it
Procedure: as §1

CYP3A4.9 = CYP3A4.9 (Homo sapiens, UniProt P08684, V170I); test: Ziprasidone catalysis by recombinant CYP3A4.9
Sequence of CYP3A4.9 (P08684 whole entry V170I): as the sequence (P08684 whole entry M445T) above, with V170I, T445M counted along it
Procedure: as §1

CYP3A4.10 = CYP3A4.10 (Homo sapiens, UniProt P08684, D174H); test: Ziprasidone catalysis by recombinant CYP3A4.10
Sequence of CYP3A4.10 (P08684 whole entry D174H): as the sequence (P08684 whole entry M445T) above, with D174H, T445M counted along it
Procedure: as §1

CYP3A4.12 = CYP3A4.12 (Homo sapiens, UniProt P08684, L373F); test: Ziprasidone catalysis by recombinant CYP3A4.12
Sequence of CYP3A4.12 (P08684 whole entry L373F): as the sequence (P08684 whole entry M445T) above, with L373F, T445M counted along it
Procedure: as §1

CYP3A4.13 = CYP3A4.13 (Homo sapiens, UniProt P08684, P416L); test: Ziprasidone catalysis by recombinant CYP3A4.13
Sequence of CYP3A4.13 (P08684 whole entry P416L): as the sequence (P08684 whole entry M445T) above, with P416L, T445M counted along it
Procedure: as §1

CYP3A4.14 = CYP3A4.14 (Homo sapiens, UniProt P08684, L15P); test: Ziprasidone catalysis by recombinant CYP3A4.14
Sequence of CYP3A4.14 (P08684 whole entry L15P): as the sequence (P08684 whole entry M445T) above, with L15P, T445M counted along it
Procedure: as §1

CYP3A4.15 = CYP3A4.15 (Homo sapiens, UniProt P08684, R162Q); test: Ziprasidone catalysis by recombinant CYP3A4.15
Sequence of CYP3A4.15 (P08684 whole entry R162Q): as the sequence (P08684 whole entry M445T) above, with R162Q, T445M counted along it
Procedure: as §1

CYP3A4.16 = CYP3A4.16 (Homo sapiens, UniProt P08684, T185S); test: Ziprasidone catalysis by recombinant CYP3A4.16; conditions: CYP3A4.16, CL = Vmax/Km
Sequence of CYP3A4.16 (P08684 whole entry T185S): as the sequence (P08684 whole entry M445T) above, with T185S, T445M counted along it
Procedure: as §1

CYP3A4.18 = CYP3A4.18 (Homo sapiens, UniProt P08684, L293P); test: Ziprasidone catalysis by recombinant CYP3A4.18
Sequence of CYP3A4.18 (P08684 whole entry L293P): as the sequence (P08684 whole entry M445T) above, with L293P, T445M counted along it
Procedure: as §1

CYP3A4.19 = CYP3A4.19 (Homo sapiens, UniProt P08684, P467S); test: Ziprasidone catalysis by recombinant CYP3A4.19
Sequence of CYP3A4.19 (P08684 whole entry P467S): as the sequence (P08684 whole entry M445T) above, with T445M, P467S counted along it
Procedure: as §1

CYP3A4.23 = CYP3A4.23 (Homo sapiens, UniProt P08684, R162W); test: Ziprasidone catalysis by recombinant CYP3A4.23
Sequence of CYP3A4.23 (P08684 whole entry R162W): as the sequence (P08684 whole entry M445T) above, with R162W, T445M counted along it
Procedure: as §1

CYP3A4.24 = CYP3A4.24 (Homo sapiens, UniProt P08684, Q200H); test: Ziprasidone catalysis by recombinant CYP3A4.24; conditions: CYP3A4.24, CL = Vmax/Km
Sequence of CYP3A4.24 (P08684 whole entry Q200H): as the sequence (P08684 whole entry M445T) above, with Q200H, T445M counted along it
Procedure: as §1

CYP3A4.28 = CYP3A4.28 (Homo sapiens, UniProt P08684, L22V); test: Ziprasidone catalysis by recombinant CYP3A4.28
Sequence of CYP3A4.28 (P08684 whole entry L22V): as the sequence (P08684 whole entry M445T) above, with L22V, T445M counted along it
Procedure: as §1

CYP3A4.31 = CYP3A4.31 (Homo sapiens, UniProt P08684, H324Q); test: Ziprasidone catalysis by recombinant CYP3A4.31
Sequence of CYP3A4.31 (P08684 whole entry H324Q): as the sequence (P08684 whole entry M445T) above, with H324Q, T445M counted along it
Procedure: as §1

CYP3A4.32 = CYP3A4.32 (Homo sapiens, UniProt P08684, I335T); test: Ziprasidone catalysis by recombinant CYP3A4.32
Sequence of CYP3A4.32 (P08684 whole entry I335T): as the sequence (P08684 whole entry M445T) above, with I335T, T445M counted along it
Procedure: as §1

CYP3A4.33 = CYP3A4.33 (Homo sapiens, UniProt P08684, A370S); test: Ziprasidone catalysis by recombinant CYP3A4.33; conditions: CYP3A4.33, CL = Vmax/Km
Sequence of CYP3A4.33 (P08684 whole entry A370S): as the sequence (P08684 whole entry M445T) above, with A370S, T445M counted along it
Procedure: as §1

CYP3A4.34 = CYP3A4.34 (Homo sapiens, UniProt P08684, I427V); test: Ziprasidone catalysis by recombinant CYP3A4.34; conditions: CYP3A4.34, CL = Vmax/Km
Sequence of CYP3A4.34 (P08684 whole entry I427V): as the sequence (P08684 whole entry M445T) above, with I427V, T445M counted along it
Procedure: as §1

[1] = parameters: method as in Beedham et al., 2003; conditions: humans; ref Beedham et al., 2003; cited from earlier work
[2] = Rat pharmacokinetic study of ziprasidone and ziprasidone sulfoxide with resveratrol or quercetin; conditions: male, Sprague-Dawley, plasma, po, 15 mg/kg, rats, n=6; for CL/F: CLz/F; for Vd/F: Vz/F; for half-life: t1/2z
Procedure: To minimize potential confounding effects of hormonal fluctuations, this study exclusively utilized male Sprague-Dawley (SD) rats (340 ± 15 g) obtained from Vital River Laboratories (Beijing, China).
Following a 7-day acclimatization period under controlled conditions (temperature: 20°C–25°C; humidity: 50%–65%; 12h/12 h light/dark cycle), 18 rats were fasted for 12 h (water ad libitum) and randomly divided into three treatment groups (n = 6 per group).
Serial blood samples (50 μL) were collected at predetermined time points (0, 1, 2, 4, 6, 8, 10, 12, 24, and 48 h) and processed with 150 μL acetonitrile and 20 μL midazolam IS (500 ng/mL). After vortex-mixing (2 min) and centrifugation (10,075 × g, 10 min), the supernatant was subjected to LC-MS/MS analysis. […] Calibration curves were established over 1–1,000 ng/mL for both analytes, with samples processed identically to study specimens.
Essential pharmacokinetic parameters were determined using a non-compartmental model through Drug and Statistics (DAS) software version 3.0. For the polymorphism experiment results, one-way ANOVA was performed in GraphPad Prism 8.0, while pharmacokinetic data were assessed using an unpaired t-test, with a p-value below 0.05 deemed statistically significant.

[3] = ziprasidone 15 mg/kg oral + quercetin 50 mg/kg i.g.
[4] = ziprasidone 15 mg/kg oral + resveratrol 50 mg/kg i.g.
[5] = ziprasidone 15 mg/kg oral, control (corn oil)

Sequence of CYP3A4.1 (P08684 whole entry): as the sequence (P08684 whole entry M445T) above, with T445M counted along it

O=C1Cc2cc(CCN3CCN(c4nsc5ccccc45)CC3)c(Cl)cc2N1 [ziprasidone, Ziprasidone]
CL (CYP3A4.1; CYP3A4.1, CL = Vmax/Km): 6.07 ± 1.19 µL/min/pmol
% of CYP3A4.1 (CYP3A4.1; CYP3A4.1, relative clearance): 100.00 ± 19.66%
CL (CYP3A4.3; CYP3A4.3, CL = Vmax/Km): 9.30 ± 0.85 µL/min/pmol
% of CYP3A4.1 (CYP3A4.3; CYP3A4.3, relative clearance): 153.26 ± 14.08 %
CL (CYP3A4.5; CYP3A4.5, CL = Vmax/Km): 4.65 ± 0.52 µL/min/pmol
% of CYP3A4.1 (CYP3A4.5; CYP3A4.5, relative clearance): 76.73 ± 8.59%
CL (CYP3A4.8; CYP3A4.8, CL = Vmax/Km): 5.71 ± 0.42 µL/min/pmol
% of CYP3A4.1 (CYP3A4.8; CYP3A4.8, relative clearance): 94.14 ± 6.86%
CL (CYP3A4.9; CYP3A4.9, CL = Vmax/Km): 7.92 ± 0.36 µL/min/pmol
% of CYP3A4.1 (CYP3A4.9; CYP3A4.9, relative clearance): 130.65 ± 6.00%
CL (CYP3A4.10; CYP3A4.10, CL = Vmax/Km): 4.52 ± 0.35 µL/min/pmol
% of CYP3A4.1 (CYP3A4.10; CYP3A4.10, relative clearance): 74.60 ± 5.81%
CL (CYP3A4.12; CYP3A4.12, CL = Vmax/Km): 5.72 ± 0.87 µL/min/pmol
% of CYP3A4.1 (CYP3A4.12; CYP3A4.12, relative clearance): 94.29 ± 14.33%
CL (CYP3A4.13; CYP3A4.13, CL = Vmax/Km): 5.60 ± 0.90 µL/min/pmol
% of CYP3A4.1 (CYP3A4.13; CYP3A4.13, relative clearance): 92.30 ± 14.84%
CL (CYP3A4.14; CYP3A4.14, CL = Vmax/Km): 6.64 ± 0.48 µL/min/pmol
% of CYP3A4.1 (CYP3A4.14; CYP3A4.14, relative clearance): 109.41 ± 7.88%
CL (CYP3A4.15; CYP3A4.15, CL = Vmax/Km): 9.53 ± 1.38 µL/min/pmol
% of CYP3A4.1 (CYP3A4.15; CYP3A4.15, relative clearance): 157.07 ± 22.67 %
CL (CYP3A4.16): 6.79 ± 1.26 µL/min/pmol
CL (CYP3A4.18; CYP3A4.18, CL = Vmax/Km): 6.56 ± 1.12 µL/min/pmol
% of CYP3A4.1 (CYP3A4.18; CYP3A4.18, relative clearance): 89.27 ± 15.28%
CL (CYP3A4.19; CYP3A4.19, CL = Vmax/Km): 6.19 ± 0.53 µL/min/pmol
% of CYP3A4.1 (CYP3A4.19; CYP3A4.19, relative clearance): 84.26 ± 7.20%
CL (CYP3A4.23; CYP3A4.23, CL = Vmax/Km): 6.11 ± 0.83 µL/min/pmol
% of CYP3A4.1 (CYP3A4.23; CYP3A4.23, relative clearance): 83.13 ± 11.26%
CL (CYP3A4.24): 3.46 ± 0.67 µL/min/pmol
CL (CYP3A4.28; CYP3A4.28, CL = Vmax/Km): 5.69 ± 1.01 µL/min/pmol
% of CYP3A4.1 (CYP3A4.28; CYP3A4.28, relative clearance): 77.40 ± 13.81%
CL (CYP3A4.31; CYP3A4.31, CL = Vmax/Km): 4.08 ± 0.83 µL/min/pmol
% of CYP3A4.1 (CYP3A4.31; CYP3A4.31, relative clearance): 55.46 ± 11.30 %
CL (CYP3A4.32; CYP3A4.32, CL = Vmax/Km): 7.66 ± 1.55 µL/min/pmol
% of CYP3A4.1 (CYP3A4.32; CYP3A4.32, relative clearance): 104.25 ± 21.13%
CL (CYP3A4.33): 14.74 ± 0.74 µL/min/pmol
CL (CYP3A4.34): 4.65 ± 0.66 µL/min/pmol
administered dose excreted unchanged [1]: less than 5%
AUC(0-t) [2, 3]: 9390 ng·h/mL
AUC(0-t) [2, 4]: 6760 ng·h/mL
AUC(0-t) [2, 5]: 6610 ng·h/mL
AUC(0-inf) [2, 3]: 9390 ng·h/mL
AUC(0-inf) [2, 4]: 6760 ng·h/mL
AUC(0-inf) [2, 5]: 6980 ng·h/mL
CL/F [2, 3]: 94.2 mL/min/kg
CL/F [2, 4]: 150 mL/min/kg
CL/F [2, 5]: 43.8 mL/min/kg
Cmax [2, 3]: 1620 ng/mL
Cmax [2, 4]: 1160 ng/mL
Cmax [2, 5]: 963 ± 367 ng/mL
Tmax [2, 3]: 4 ± 1.79 h
Tmax [2, 4]: 4.33 ± 2.66 h
Tmax [2, 5]: 4 ± 2.19 h
Vd/F [2, 3]: 33.3 ± 22.1 L/kg
Vd/F [2, 4]: 56.1 ± 42.7 L/kg
Vd/F [2, 5]: 24.3 ± 19.1 L/kg
half-life [2, 3]: 3.79 ± 2.11 h
half-life [2, 4]: 4.06 ± 1.52 h
half-life [2, 5]: 8.64 ± 10.8 h
